From patent US7560480B2, “Alkyl-containing 5-acylindolinones, the preparation thereof and their use as medicaments” (Boehringer Ingelheim International GmbH, priority 2004, dated 2009)

Tests used:
mice = experiment: Tolerability after oral administration (animals' behaviour); assay type: in vivo; conditions: oral administration of 10 mg/kg
db/db mice = experiment: Oral glucose tolerance test; assay type: in vivo; conditions: fasted db/db mice, 2 g/kg glucose orally 30 minutes after the substance
Experimental: Oral Glucose Tolerance Test
Fasted db/db mice 7 to 9 weeks old (Janvier, France) are weighed and blood is taken from the tip of the tail. This blood is used for the first measurement of glucose on the basis of which the animals are randomised and divided into groups. The test substance to be tested may be given either orally or i.p. as a suspension in 0.5% Natrosol. 30 minutes after the administration of the substance the animals are given orally 2 g/kg glucose in a volume of 0.1 ml/100 g body weight dissolved in NaCl solution. Subsequently, the glucose values are determined from the tail blood using a glucometer (Ultra OneTouch, Lifescan) at specific time intervals [30, 60, 120 and 180 minutes after oral administration of the glucose].

Structure (SMILES): CC(=O)c1ccc2c(c1)/C(=C(/NCCC(=O)N1CCN(C)CC1)c1ccccc1)C(=O)N2 [Example 1.009]
- tolerability: changes in the animals' behaviour (mice): no changes were observed in the animals' behaviour
- activity in the oral glucose tolerance test (db/db mice): significant activity
